Data set [1] deals with Eμmyc lymphoma cells. Nature of the data set: In vivo efficacy, mice injected intravenously with Eμmyc lymphoma cells. The conditions noted are these: C57BL/6 mice. The protocol:
The efficacy of compounds of the invention alone or in combination with chemotherapeutics agents were measured in vivo by implanting allografts or xenografts of cancer cells in rodents and treating the tumour-bearing animals with the compounds alone or in combination with chemotherapeutics agents.
Recipient mice were monitored for tumor formation by the presence of tumoral cells in the blood (LDH measurement), and twice a week by palpation of the pre-scapular and cervical lymph-nodes, once a week by sonography measurement of thoracic lymph-nodes size. […] Efficacy of the treatment was done evaluating the relative weight of all tumoral tissues (spleen, salivary lymph-nodes, mammary lymph-nodes, thymus and mesenteric lymph-nodes) versus body weight substrating the relative weight of same normal tissues. Bars represent standard error of the mean (n=8).

Data set [2] concerns the target CYP 1A2 (Homo sapiens (Human), UniProt P05177). Nature of the data set: CYP inhibition assay (P450-Glo). Format: in vitro ADME. Particulars: recombinant CYP.
For data set [3], the target named is CYP 2D6 (Homo sapiens (Human), UniProt P10635). Nature of the data set: CYP inhibition assay (P450-Glo). The conditions noted are these: recombinant CYP. The format is in vitro ADME.
In data set [4] the target is CYP 2C9 (Homo sapiens (Human), UniProt P11712). In words: CYP inhibition assay (P450-Glo). The conditions noted are these: read-out: P450-2C9 IC50; recombinant CYP.
The target of data set [5] is CYP 3A4 (Homo sapiens (Human), UniProt P08684). In words: CYP inhibition assay (P450-Glo). Particulars: read-out: P450-3A4 IC50; recombinant CYP.
Data set [6] addresses CYP 2C19 (Homo sapiens (Human), UniProt P33261). Nature of the data set: CYP inhibition assay (P450-Glo). Format: in vitro ADME. The conditions noted are these: recombinant CYP.
Data set [7] has as its target T1, ATR (Homo sapiens (Human), UniProt Q13535). Nature of the data set: Cellular ATR inhibition, western blot of CHK1(S345) phosphorylation in hydroxyurea treated cells. Format: cell-based. The conditions noted are these: HT29 cells, hydroxyurea 2.5 mM. Put shortly:
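HT29 cells exposed to compound (3-fold dilutions from 10 μM final) for 15 min, then 2.5 mM hydroxyurea for 30 min at 37 °C. Lysates blotted for pS345-CHK1 and total CHK1, infrared-imaged; ratio normalized to hydroxyurea-only cells as 100%, EC50 from concentration–response.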
In general terms: Immunoblotting shows a protein as a band on a membrane.

In data set [8] the target is ATM (Homo sapiens (Human), UniProt Q13315). In words: Cellular ATM inhibition, pCHK2 Thr68 after UV mimetic 4NQO. Format: cell-based. The conditions noted are these: HT-29, read-out: UV mimetic inhibition of CHK2P at 10 μM (%); 10 μM compound, 3 μM 4NQO, HT29 cells. From the text: (§1) ATM and ATR have distinct and overlapping responses to DNA damage. They must participate together and responses must be coordinated. Both pathways may be activated by ionizing radiation, and UV. As UV treatment is not practical for use in a high throughput cell assay, the UV mimetic 4NQO (Sigma) was chosen to activate the ATR and ATM DNA damage response pathway.
(§2) Chk1, a downstream protein kinase of ATR, has a key role in DNA damage checkpoint control, as well as Chk2 downstream of ATM. […] This assay measures a decrease in phosphorylation of Chk1 (Ser 345) and […] in HT29 colon adenocarcinoma cells following treatment with compound and the UV mimetic 4NQO. Compounds at 1 mM were created by diluting in 100% DMSO and then diluted 1:100 into assay media (RPMI, 10% FCS, 1% glutamine). Cells were plated in 6 well Costar plates at 5×10^5 cells per mL in 2 mL RPMI, 10% FCS, 1% glutamine and grown for 24 hrs. Following addition of compound the cells were incubated for 60 minutes. A final concentration of 3 μM 4NQO (prepared in 100% DMSO) was then added and the cells incubated for a further 60 mins. The cells are lysed and pChk1 Ser345 and pCHK2 Thr68 (Cell Signaling Technology, #2661) versus total CHK1 and CHK2 (Santa Cruz Biotechnology, se-5278) respectively has analysed by western blot as described above. The percentage of phosphorylated CHK1 versus total CHK1 or p-CHK2 versus total CHK2 in cells treated with 4NQO was taken as hundred percent of phosphorylation. The percentage of CHK1 or CHK2 phosphorylation is finally plotted against concentration for each compound and EC50s for intracellular ATR inhibition are calculated using ActivityBase from IDBS.

In data set [9] the target is T1, ATR. Nature of the data set: Cellular ATR inhibition, pChk1 Ser345 after UV mimetic 4NQO. Format: cell-based. Particulars: HT-29, read-out: UV mimetic inhibition of CHK1P at 10 μM (%); 10 μM compound, 3 μM 4NQO, HT29 cells.
From the text: as §1, §2

Structures are written as SMILES. Bounds are passed on as bounds.

Results on five compounds are retold here after patent publication US9453031B2, “Chemical entities” (Fundación Centro Nacional de Investigaciones Oncológicas …, priority 2013, dated 2016).

The IC50 is the concentration that inhibits the measured activity by half. What is called EC50 is the concentration that produces a half-maximal response. A low value points to greater potency. Broadly, the inhibition is how much of the control response was suppressed.

T1 sequence (Q13535 whole entry): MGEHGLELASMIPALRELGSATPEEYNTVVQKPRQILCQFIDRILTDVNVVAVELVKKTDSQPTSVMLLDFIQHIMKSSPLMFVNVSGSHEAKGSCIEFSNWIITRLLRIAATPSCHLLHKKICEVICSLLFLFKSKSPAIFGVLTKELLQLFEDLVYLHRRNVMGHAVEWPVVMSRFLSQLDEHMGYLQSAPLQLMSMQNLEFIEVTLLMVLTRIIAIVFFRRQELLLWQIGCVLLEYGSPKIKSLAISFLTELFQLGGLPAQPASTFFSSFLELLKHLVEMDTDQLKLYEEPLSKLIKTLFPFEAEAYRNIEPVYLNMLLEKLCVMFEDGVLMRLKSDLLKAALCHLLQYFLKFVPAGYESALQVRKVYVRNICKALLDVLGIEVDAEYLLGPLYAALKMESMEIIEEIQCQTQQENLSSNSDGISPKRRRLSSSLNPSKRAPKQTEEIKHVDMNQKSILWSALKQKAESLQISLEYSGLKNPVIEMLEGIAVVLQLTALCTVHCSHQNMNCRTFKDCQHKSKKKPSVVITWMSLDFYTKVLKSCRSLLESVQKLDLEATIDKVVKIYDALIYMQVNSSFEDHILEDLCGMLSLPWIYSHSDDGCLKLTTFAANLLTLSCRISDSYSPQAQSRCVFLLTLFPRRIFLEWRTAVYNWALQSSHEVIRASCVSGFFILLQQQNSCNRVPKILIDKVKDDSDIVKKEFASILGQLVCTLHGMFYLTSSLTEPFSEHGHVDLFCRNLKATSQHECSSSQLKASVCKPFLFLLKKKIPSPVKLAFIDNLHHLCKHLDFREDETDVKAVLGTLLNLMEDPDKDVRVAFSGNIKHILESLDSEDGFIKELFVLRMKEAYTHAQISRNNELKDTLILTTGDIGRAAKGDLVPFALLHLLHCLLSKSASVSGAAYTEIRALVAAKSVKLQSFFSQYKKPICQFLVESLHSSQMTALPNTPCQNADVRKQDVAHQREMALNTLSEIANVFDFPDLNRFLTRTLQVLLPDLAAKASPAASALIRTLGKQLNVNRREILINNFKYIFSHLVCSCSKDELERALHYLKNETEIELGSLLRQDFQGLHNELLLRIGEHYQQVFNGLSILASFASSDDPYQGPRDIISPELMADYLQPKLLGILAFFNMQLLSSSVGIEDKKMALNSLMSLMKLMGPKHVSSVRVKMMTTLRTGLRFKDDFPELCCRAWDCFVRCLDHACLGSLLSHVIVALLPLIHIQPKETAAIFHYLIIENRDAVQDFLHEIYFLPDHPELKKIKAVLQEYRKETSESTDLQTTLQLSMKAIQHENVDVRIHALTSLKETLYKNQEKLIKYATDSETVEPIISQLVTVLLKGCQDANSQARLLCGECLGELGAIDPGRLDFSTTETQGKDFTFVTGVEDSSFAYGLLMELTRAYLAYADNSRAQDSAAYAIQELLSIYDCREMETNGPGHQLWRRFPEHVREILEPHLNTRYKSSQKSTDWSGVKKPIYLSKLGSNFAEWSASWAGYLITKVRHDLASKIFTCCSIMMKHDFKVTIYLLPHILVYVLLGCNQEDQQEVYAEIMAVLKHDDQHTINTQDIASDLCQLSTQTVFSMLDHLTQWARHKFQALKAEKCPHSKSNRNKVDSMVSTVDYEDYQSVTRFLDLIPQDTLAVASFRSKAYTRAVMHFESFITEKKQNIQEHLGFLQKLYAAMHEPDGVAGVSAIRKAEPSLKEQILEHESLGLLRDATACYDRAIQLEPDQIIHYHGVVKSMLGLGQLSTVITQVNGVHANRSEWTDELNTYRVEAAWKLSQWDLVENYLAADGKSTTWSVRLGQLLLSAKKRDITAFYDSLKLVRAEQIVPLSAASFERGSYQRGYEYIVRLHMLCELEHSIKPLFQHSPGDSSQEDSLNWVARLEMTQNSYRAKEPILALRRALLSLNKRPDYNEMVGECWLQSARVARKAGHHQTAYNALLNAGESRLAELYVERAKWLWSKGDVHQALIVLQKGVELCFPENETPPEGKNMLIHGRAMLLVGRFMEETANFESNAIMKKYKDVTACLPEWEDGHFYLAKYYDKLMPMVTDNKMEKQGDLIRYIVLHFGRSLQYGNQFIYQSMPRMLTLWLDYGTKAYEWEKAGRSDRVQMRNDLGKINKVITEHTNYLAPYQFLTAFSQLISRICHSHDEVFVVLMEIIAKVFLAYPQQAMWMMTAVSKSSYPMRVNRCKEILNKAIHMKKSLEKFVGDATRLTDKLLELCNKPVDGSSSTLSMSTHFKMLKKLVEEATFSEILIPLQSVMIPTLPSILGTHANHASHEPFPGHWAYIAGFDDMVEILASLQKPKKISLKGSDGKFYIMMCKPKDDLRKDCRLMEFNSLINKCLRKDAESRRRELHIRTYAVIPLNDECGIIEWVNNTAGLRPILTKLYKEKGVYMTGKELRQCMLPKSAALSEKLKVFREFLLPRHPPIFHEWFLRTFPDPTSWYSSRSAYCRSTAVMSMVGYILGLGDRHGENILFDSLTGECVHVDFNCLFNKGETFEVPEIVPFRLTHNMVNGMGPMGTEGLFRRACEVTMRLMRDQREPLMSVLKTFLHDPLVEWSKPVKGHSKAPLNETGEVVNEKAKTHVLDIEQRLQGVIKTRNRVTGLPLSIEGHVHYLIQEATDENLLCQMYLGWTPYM
Chain of CYP 2C9 (P11712 whole entry): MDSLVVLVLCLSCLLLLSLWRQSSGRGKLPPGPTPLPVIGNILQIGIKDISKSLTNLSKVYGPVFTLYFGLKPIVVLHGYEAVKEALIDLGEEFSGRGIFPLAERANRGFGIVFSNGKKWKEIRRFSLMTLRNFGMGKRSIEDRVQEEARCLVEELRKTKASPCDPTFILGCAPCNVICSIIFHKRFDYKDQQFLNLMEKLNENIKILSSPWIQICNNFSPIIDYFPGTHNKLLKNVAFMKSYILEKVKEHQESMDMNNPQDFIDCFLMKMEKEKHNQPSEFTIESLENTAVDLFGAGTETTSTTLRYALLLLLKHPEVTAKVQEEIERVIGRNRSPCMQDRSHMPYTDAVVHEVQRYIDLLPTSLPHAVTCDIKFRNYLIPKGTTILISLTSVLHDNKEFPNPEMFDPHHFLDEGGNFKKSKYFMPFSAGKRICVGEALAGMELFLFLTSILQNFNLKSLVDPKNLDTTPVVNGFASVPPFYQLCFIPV
Chain of CYP 3A4 (P08684 whole entry): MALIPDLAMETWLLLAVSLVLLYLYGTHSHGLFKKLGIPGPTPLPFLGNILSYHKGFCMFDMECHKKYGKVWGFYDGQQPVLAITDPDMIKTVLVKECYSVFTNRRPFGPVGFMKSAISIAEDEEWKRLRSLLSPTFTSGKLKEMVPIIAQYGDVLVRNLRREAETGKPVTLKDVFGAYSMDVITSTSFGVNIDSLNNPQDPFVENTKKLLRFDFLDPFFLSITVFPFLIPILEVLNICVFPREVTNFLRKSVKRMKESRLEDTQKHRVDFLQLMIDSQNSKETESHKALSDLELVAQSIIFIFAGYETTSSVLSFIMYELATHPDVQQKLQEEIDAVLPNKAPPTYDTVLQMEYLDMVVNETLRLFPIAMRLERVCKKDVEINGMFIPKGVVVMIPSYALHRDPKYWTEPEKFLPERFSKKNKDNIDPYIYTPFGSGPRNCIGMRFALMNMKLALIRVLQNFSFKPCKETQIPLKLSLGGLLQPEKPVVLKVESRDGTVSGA
Chain of CYP 2C19 (P33261 whole entry): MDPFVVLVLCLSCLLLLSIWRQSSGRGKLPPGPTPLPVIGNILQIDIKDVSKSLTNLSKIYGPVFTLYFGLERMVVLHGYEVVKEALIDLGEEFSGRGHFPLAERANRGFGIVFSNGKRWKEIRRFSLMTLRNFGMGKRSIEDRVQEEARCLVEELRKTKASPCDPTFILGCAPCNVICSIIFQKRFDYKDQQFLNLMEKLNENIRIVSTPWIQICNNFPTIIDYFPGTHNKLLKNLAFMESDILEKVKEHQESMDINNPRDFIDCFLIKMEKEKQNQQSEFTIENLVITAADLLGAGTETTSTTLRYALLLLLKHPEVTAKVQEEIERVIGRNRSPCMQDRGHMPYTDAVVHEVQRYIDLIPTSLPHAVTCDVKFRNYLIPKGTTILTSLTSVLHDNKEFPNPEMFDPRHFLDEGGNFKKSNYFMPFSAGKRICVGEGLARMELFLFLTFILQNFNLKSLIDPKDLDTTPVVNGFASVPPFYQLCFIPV
Chain of CYP 1A2 (P05177 whole entry): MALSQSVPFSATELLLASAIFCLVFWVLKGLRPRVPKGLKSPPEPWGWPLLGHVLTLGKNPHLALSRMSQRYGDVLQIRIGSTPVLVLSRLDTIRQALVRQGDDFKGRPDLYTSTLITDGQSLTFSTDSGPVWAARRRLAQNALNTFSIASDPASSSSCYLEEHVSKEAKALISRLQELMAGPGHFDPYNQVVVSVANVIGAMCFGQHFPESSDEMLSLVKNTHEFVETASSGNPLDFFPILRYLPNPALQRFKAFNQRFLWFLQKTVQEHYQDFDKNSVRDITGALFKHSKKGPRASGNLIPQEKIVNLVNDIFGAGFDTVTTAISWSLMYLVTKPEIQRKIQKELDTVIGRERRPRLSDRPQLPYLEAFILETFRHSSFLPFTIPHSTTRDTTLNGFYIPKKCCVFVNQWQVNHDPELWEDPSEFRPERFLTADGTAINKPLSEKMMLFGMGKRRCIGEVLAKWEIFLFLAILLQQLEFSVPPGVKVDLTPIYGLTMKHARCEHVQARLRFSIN

In the case of `CNc1nc2ccccc2n1-c1nc2c(c(C(C)(C)S(C)(=O)=O)n1)OC[C@@H]1COCCN21` [Example 11], the “tumor growth inhibition (TGI)” value in [1] (25 mg/kg oral once daily, day 33, compared to vehicle) is 53%; in data set [1] (50 mg/kg oral once daily, day 33, compared to vehicle) it was 74%. The 50% inhibitory concentration (IC50) in data set [2] is more than 50 µM; in [3], more than 50 µM; in [4], 34 µM; in data set [5], 39 µM; in [6], more than 50 µM. In data set [7], this compound yielded an EC50 of less than 0.1 µM.
In the case of `CS(=O)(=O)C1(c2nc(-c3cccc4[nH]ccc34)nc3c2OCC2COCCN32)CCOCC1` (stereo not shown) [Example 2], the EC50 in data set [7] was less than 0.1 µM. For the same compound, the inhibition at 10 µM in data set [8] came to 0%; in [9], 98%.
The corresponding values for `CNc1nc2ccccc2n1-c1nc2c(c(C(C)(C)S(C)(=O)=O)n1)OCC1COCCN21` (stereo not shown) [Example 8] are less than 0.1 µM, 25% and 98%.
The compound `CS(=O)(=O)C1(c2nc(-c3cccc4[nH]ccc34)nc3c2OC[C@H]2COCCN32)CCOCC1` [Example 10] yielded an EC50 in data set [7] of 0.1 to 1 µM. Besides, the inhibition at 10 µM worked out at 25% in data set [8] and 95% in data set [9].
`CS(=O)(=O)C1(c2nc(-c3cccc4[nH]ccc34)nc3c2OC[C@@H]2COCCN32)CCOCC1` [Example 3]: the “tumor growth inhibition (TGI)” value in data set [1] (25 mg/kg oral once daily, day 23, compared to vehicle) was 46%. The IC50 in data set [2], in data set [4], in data set [5] and in data set [6] was more than 50 µM throughout. This compound gave a concentration for a half-maximal effect (EC50) in data set [7] of less than 0.1 µM. Also, the figures for the inhibition at 10 µM in [8] and in data set [9] were 0% and 98%, respectively.
